In ChEMBL document CHEMBL1201862, “PubChem BioAssay data set” (2004):
Active and inactive are the calls of the source.

Legend:
[1] = target: T1, DNA repair protein RAD52 homolog (Homo sapiens, UniProt P43351); type: functional, biochemical
T1 sequence (P43351 whole entry): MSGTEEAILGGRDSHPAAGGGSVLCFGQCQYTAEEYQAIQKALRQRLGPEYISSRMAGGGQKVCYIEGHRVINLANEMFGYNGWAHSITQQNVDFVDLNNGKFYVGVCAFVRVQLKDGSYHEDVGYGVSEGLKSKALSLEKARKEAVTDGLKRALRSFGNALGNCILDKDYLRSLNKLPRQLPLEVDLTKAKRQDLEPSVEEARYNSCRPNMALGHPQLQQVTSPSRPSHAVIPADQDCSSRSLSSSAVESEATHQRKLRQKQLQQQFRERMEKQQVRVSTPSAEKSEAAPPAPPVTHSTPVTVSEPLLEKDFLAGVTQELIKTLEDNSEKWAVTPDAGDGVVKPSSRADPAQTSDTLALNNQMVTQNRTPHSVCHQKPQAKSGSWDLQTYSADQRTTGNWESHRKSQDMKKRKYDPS

[2] = viability of uninfected HEp-2 cells – cell-based, HTS, cytotoxicity control for RSV inhibitor project, dose response (AID 2410); type: functional; settings: human respiratory syncytial virus
[3] = microbe, parasite or virus in culture; type: functional; settings: Mycobacterium tuberculosis
[4] = target: T2, Ubiquitin-conjugating enzyme E2 N (Homo sapiens, UniProt P61088); type: functional;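 note: Dose-response confirmation in a TR-FRET assay detecting UBC13-driven polyubiquitin chain formation, inhibition measured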
T2 sequence (P61088 whole entry): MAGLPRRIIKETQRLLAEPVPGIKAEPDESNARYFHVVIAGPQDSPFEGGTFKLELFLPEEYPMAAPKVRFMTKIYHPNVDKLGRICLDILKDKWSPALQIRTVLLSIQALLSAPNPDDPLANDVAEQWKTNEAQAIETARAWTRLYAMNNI

[5] = alpha-synuclein stem-loop luciferase translation blockers – H4 neuroglioma cells, luminescence, confirmation (AID 1988); type: functional, cell-based
[6] = Luminescence Cell-Based Dose Response HTS to Identify Inhibitors of 5'UTR Stem-Loop Driven Prion Protein mRNA Translation in H4 Neuroglioblastoma Cells. [Related pubchem assays: 1827 (Project Summary), 1813 (Primary HTS)]; type: functional
[7] = luciferase reporter signal suppression in cells – H4 neuroglioma cells, luminescence, dose response (AID 1990); type: functional, cell-based
[8] = target: T3, Rac GTPase-activating protein 1 (Homo sapiens, UniProt Q9H0H5); assay: blockers of MgcRacGAP-driven Rac1 GTP hydrolysis – biochemical, ADP Hunter fluorescence, primary and confirmatory, confirmation (AID 624330); type: functional
T3 sequence (Q9H0H5 whole entry): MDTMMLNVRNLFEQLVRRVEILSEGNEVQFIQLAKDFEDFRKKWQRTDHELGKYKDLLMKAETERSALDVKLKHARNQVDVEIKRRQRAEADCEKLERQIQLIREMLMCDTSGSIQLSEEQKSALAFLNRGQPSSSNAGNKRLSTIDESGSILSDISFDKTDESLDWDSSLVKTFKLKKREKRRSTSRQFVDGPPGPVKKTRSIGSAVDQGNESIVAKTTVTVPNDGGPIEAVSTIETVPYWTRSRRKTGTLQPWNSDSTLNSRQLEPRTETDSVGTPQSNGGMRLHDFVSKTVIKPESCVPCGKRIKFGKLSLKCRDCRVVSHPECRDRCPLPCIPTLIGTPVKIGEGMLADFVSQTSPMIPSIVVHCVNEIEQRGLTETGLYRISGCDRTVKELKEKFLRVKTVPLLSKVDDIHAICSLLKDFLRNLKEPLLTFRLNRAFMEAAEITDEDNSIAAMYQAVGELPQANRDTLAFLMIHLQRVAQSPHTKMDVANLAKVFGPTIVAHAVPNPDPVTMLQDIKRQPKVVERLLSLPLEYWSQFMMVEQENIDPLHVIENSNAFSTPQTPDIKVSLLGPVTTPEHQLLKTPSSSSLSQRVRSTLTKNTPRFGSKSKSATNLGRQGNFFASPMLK

[9] = target: Cytochrome P450 3A4 (Homo sapiens, UniProt P08684); settings: Potency;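 note: confirmatory qHTS run detecting inhibitors and substrates of CYP3A4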
[10] = target: Cytochrome P450 2D6 (Homo sapiens, UniProt P10635);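 note: CYP2D6 member of a cytochrome P450 panel assay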
[11] = tested on: Streptococcus sp. 'group A'; assay: Streptococcus pyogenes SK(-)GAS viability under kanamycin – luminescence, BacTiterGlo, confirmation, counter-screen for streptokinase expression inhibitor project, dose response (AID 1900); type: functional, organism-based
[12] = tested on: Streptococcus; assay: GAS UMAA2166 growth inhibition – luminescence, BacTiterGlo, counter-screen for streptokinase expression inhibitor project, dose response (AID 1915); type: functional, organism-based;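 note: potency for reduction of bacterial viability or growth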
[13] = target: T4, Streptokinase A (Streptococcus pyogenes serotype M1, UniProt P10520); assay: viability-normalized secreted streptokinase activity reduction – plasminogen activation absorbance, OD405, dose response (AID 1914); type: functional, Streptococcus pyogenes M1 GAS;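 note: secreted streptokinase activity via plasminogen activation per viability signal from cell pellet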
T4 sequence (P10520 whole entry): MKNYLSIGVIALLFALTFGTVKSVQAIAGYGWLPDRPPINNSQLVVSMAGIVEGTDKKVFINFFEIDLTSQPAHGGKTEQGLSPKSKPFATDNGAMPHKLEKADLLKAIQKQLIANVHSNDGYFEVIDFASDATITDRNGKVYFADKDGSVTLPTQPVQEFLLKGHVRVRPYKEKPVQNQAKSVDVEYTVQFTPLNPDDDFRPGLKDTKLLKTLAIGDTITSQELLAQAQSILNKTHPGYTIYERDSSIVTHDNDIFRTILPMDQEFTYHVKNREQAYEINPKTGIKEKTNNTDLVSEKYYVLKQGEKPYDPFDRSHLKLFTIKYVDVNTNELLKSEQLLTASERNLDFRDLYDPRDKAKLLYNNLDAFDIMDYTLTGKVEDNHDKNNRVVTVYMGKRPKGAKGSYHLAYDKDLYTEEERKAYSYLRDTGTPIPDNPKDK

[14] = target: Glyceraldehyde-3-phosphate dehydrogenase (Homo sapiens, UniProt P04406)
[15] = viability of PTEN-deleted HCT116 cells – cell-based, HCT116 PTEN knockout, dose response (AID 1047); type: functional;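 note: HCT116 colon tumor cells with PTEN knocked out; cells exposed to compound for 60 hours before readout; potency for loss of cell viability measured by luminescence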
[16] = viability of HCT116 lacking mutant beta-catenin – cell-based, human colon tumor, dose response (AID 1045); type: functional;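 note: HCT116 colon tumor cells with beta catenin knocked out; cells exposed to compound for 60 hours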
[17] = tested on: Vero; assay: cells; type: functional; settings: Chlorocebus sabaeus
[18] = cells; type: functional
[19] = target: T5, Heat shock factor protein 1 (Mus musculus, UniProt P38532); assay: enhancement of HSF1-driven luciferase signal – cell-based, NIH3T3, luminescence, dose retest, confirmation (AID 435004); type: functional;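 note: stress induced by proteasome inhibitor MG132 added 30 min after compound; luciferase reporter driven by HSF1 response element in NIH3T3 cells; actives raise luminescence as potentiators of the MG132 stress response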
T5 sequence (P38532 whole entry): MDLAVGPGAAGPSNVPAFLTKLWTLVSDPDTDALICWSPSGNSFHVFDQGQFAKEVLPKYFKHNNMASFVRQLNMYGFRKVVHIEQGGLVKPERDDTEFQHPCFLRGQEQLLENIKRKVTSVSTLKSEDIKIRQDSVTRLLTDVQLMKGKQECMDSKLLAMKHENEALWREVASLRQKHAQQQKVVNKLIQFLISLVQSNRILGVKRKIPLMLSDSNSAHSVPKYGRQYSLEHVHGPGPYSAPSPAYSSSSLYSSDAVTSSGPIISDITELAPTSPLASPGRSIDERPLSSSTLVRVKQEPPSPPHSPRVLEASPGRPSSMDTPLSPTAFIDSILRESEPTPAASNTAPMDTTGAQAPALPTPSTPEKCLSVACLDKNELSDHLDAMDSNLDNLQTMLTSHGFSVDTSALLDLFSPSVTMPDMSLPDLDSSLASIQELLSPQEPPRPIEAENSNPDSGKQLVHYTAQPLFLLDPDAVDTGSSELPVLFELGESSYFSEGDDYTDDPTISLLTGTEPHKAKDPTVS

[20] = tested on: BJ; assay: BJ-TERT-LT-ST fibroblast viability loss – cell-based, RAS-independent, luminescence, dose response (AID 1935); type: functional; settings: Homo sapiens;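 note: BJ fibroblasts immortalized with TERT plus LT and ST oncogenes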
[21] = tested on: BJ; assay: cells; type: functional, cell-based; settings: Homo sapiens
[22] = tested on: BJ; assay: BJ-TERT fibroblast viability loss – cell-based, RAS-independent, luminescence, dose response (AID 1933); type: functional; settings: Homo sapiens
[23] = DRD fibroblast viability loss – cell-based, non-viral oncogenic, luminescence, dose response (AID 1934); type: functional; settings: Homo sapiens
[24] = Trypanosoma cruzi growth suppression in host cells – NIH3T3 host cells, beta-gal luminescence, confirmation (AID 2044); type: functional, cell-based;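 note: intracellular parasites grown in NIH/3T3 mouse fibroblasts as host cells; luminescent beta-galactosidase reporter signal from transgenic T. cruzi replicating inside host cells; inhibitors lower the luminescence signal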
[25] = NIH3T3 cell viability loss – ATP luminescence, mouse fibroblasts, counter-screen, dose response (AID 2010); type: functional, cell-based;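 note: cells exposed to compound for about 90 hours before reading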
[26] = target: Eukaryotic translation initiation factor 4E (Mus musculus, UniProt P63073); assay: blockers of eIF4G binding by eIF4E – biochemical, TR-FRET, dose response (AID 855); type: functional;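 note: potency for disrupting eIF4E binding to eIF4GI seen as loss of FRET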
Sequence of Eukaryotic translation initiation factor 4E (P63073 whole entry): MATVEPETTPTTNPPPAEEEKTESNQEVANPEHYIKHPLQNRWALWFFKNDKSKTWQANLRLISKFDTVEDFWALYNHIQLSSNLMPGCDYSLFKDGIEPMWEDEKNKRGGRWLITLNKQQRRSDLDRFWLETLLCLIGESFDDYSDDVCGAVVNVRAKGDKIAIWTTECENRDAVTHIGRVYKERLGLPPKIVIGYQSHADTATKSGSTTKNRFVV

Sequence of Cytochrome P450 3A4 (P08684 whole entry): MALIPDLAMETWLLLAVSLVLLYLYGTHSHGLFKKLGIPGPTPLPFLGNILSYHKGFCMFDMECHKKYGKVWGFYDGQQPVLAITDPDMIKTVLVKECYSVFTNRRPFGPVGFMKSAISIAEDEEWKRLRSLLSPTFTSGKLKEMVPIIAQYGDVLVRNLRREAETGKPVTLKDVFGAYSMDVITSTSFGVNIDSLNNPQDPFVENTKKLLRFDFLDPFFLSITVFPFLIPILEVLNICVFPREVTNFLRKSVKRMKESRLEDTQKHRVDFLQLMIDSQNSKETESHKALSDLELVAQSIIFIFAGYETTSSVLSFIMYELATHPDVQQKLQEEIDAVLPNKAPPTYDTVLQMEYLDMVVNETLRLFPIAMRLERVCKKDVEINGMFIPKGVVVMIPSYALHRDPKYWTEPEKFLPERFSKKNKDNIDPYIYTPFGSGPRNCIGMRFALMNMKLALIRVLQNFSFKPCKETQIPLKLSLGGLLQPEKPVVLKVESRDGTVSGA
Sequence of Cytochrome P450 2D6 (P10635 whole entry): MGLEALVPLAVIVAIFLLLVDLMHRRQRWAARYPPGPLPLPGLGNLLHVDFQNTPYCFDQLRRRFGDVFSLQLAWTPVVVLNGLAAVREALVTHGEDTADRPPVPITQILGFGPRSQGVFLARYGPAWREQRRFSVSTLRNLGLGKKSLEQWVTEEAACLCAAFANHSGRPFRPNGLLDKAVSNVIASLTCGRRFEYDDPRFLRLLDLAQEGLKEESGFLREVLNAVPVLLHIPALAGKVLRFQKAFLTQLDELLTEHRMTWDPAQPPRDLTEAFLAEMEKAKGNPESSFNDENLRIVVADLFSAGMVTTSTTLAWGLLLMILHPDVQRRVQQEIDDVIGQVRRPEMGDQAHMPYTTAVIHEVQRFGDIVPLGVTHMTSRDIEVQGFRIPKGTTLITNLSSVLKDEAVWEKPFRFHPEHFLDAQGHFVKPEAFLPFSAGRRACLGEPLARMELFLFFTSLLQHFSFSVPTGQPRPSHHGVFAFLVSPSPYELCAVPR
Sequence of Glyceraldehyde-3-phosphate dehydrogenase (P04406 whole entry): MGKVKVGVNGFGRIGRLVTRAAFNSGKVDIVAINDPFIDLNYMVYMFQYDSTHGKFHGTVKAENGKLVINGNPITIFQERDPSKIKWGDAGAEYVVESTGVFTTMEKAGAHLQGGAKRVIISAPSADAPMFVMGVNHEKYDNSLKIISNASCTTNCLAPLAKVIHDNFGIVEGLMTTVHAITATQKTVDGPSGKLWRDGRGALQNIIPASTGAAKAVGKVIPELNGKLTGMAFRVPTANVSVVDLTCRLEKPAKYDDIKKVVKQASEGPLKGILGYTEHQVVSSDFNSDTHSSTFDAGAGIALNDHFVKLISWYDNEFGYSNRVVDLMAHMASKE

CCN(CC)CCN(C(=O)c1ccc(C(=O)c2ccccc2)cc1)c1nc2c(OC)cccc2s1
AC50 [1]: 17.2 µM (active)

COc1ccc(OC)c(Nc2nc(-c3sc(C)nc3C)cs2)c1
CC50 [2]: 20.4 µM (active) | CC50 [3]: > 40 µM (active)

CCOC(=O)N1CCN(C(=O)C(=O)Nc2sc3c(c2C(N)=O)CC(C)(C)OC3)CC1
IC50 [4]: > 20 µM (inactive)

O=C(CN1C(=O)c2ccccc2S1(=O)=O)N1CCc2ccccc2C1
EC50 [5]: 12.6 µM (active) | EC50 [6]: 21.4 µM (active) | EC50 [7]: 25.5 µM (active)

CC1CCCCN1CC(=O)Nc1ccc(N2CCCCCC2)cc1 (centres undefined)
IC50 [8]: 101 µM (active) | AC50 [1]: 17.4 µM (active)

Cc1ccc(S(=O)(=O)Oc2ccc(/N=N/c3ccc(-c4ccc(/N=N/c5c(O)ccc6cc(S(=O)(=O)O)cc(S(=O)(=O)O)c56)c(C)c4)cc3C)cc2)cc1
AC50 [9]: 25.1 µM (inconclusive)

CNC(C)C(=O)NC(C(=O)N1CCCC1C(=O)Nc1ccc2[nH]ccc2c1)C(C)C (centres undefined)
AC50 [1]: 7.54 µM (active)

CCCCC1CCC(c2nc(-c3ccccn3)no2)CC1 (centres undefined)
AC50 [10]: 25.1 µM (inconclusive) | EC50 [5]: 2.95 µM (active) | EC50 [11]: 16.1 µM (active) | EC50 [12]: 21 µM (active) | EC50 [13]: > 150 µM (not active) | EC50 [6]: > 60 µM (not active) | EC50 [7]: 9.12 µM (inconclusive)

CCN(CC)c1cccc(O)c1
AC50 [9]: 31.6 µM (inconclusive)

CCCCCCc1ccc(N2C[C@H](C)[C@@H](CC(=O)NCc3ccccc3)C2=O)cc1
CC50 [3]: > 40 µM (active)

COc1cccc(N2CCN(C3=C(Cl)C(=O)N(c4ccc([N+](=O)[O-])cc4)C3=O)CC2)c1
IC50 [14]: > 50 µM (inconclusive)

COc1cccc(-c2cnc(NCc3cc(Cl)ccc3O)n2C)c1
CC50 [3]: > 40 µM (active)

COc1cc2c(cc1OC)C(c1ccccc1N)=NCC2
AC50 [1]: 18.6 µM (active)

CN(CCNC(=O)c1cc2c(=O)n(C)c3ccccc3c2n1C)Cc1ccccc1
EC50 [15]: 31.5 µM (active) | EC50 [16]: 23 µM (active)

CNC(=O)C1(C)C=CC2(CCCCC2)N1C(=O)OC (centres undefined)
AC50 [9]: 25.1 µM (inconclusive)

COc1ccc(/N=c2\cc(-c3ccc(O)cc3)oc3ccccc23)cc1
CC50 [3]: 32.9 µM (active)

CC(C)c1ccc2[nH]c(O)c(N=NC(=O)c3cccc(S(=O)(=O)Nc4ccc(Cl)cc4)c3)c2c1
EC50 [5]: > 120 µM (not active) | EC50 [6]: > 120 µM (not active) | EC50 [7]: > 120 µM (not active)

CC1(C)OC2CC3C4CC(F)C5=CC(=O)C=C[C@@]5(C)[C@@]4(F)C(O)C[C@@]3(C)[C@]2(C(=O)CO)O1 (some centres undefined)
AC50 [9]: 39.8 µM (inconclusive)

COC(=O)CNC(=O)C1(CC(C)C)C=CCN1C(C)=O (centres undefined)
AC50 [9]: 25.1 µM (inconclusive)

COc1cc(/C=C2\N=C(c3ccccc3)NNC2=O)cc(OC)c1OC
EC50 [5]: 8.22 µM (active) | EC50 [6]: 9.91 µM (active) | EC50 [7]: > 120 µM (not active)

CC(C)(C)NC(=O)[C@@H]1C[C@@H]2CCCC[C@@H]2CN1C[C@@H](O)[C@H](Cc1ccccc1)NC(=O)[C@H](CC(N)=O)NC(=O)c1ccc2ccccc2n1
CC50 [3]: > 40 µM (active)

CCOC(=O)c1c(NC(=S)NC(=O)/C=C/c2cccs2)sc(C)c1C
EC50 [15]: 21.2 µM (active) | EC50 [16]: 21.4 µM (active)

COc1ccccc1/C=C/C(=O)c1cccs1
AC50 [9]: 25.1 µM (inconclusive)

C=CCn1c(SCC(=O)c2[nH]c(C)c(C(=O)OCC)c2C)nc2scc(-c3ccc(OC)cc3)c2c1=O
CC50 [17]: 6.78 µM (active) | EC50 [15]: 1.49 µM (active) | EC50 [16]: 1.41 µM (active)

CCOc1ccc(OC(=O)c2ccc3c(=O)n4c(nc3c2)CCC4)cc1
IC50 [18]: 0.12 µM (active)

Cc1ccc(N(Cc2ccc(C(=O)Nc3ccccc3C(=O)NCc3ccco3)cc2)S(C)(=O)=O)cc1C
EC50 [19]: > 260 µM (inactive) | EC50 [5]: 22.9 µM (active) | EC50 [6]: > 120 µM (not active) | EC50 [7]: 17.5 µM (active)

CC(/C=N/NC(=O)c1cc(-c2ccc(Cl)cc2)nc2ccccc12)=C\c1ccco1
EC50 [20]: 22.4 µM (inconclusive) | EC50 [21]: 2.73 µM (active) | EC50 [22]: 2.07 µM (active) | EC50 [23]: 2.58 µM (inconclusive)

Cc1nc2ccc(NC(=O)c3ccc([N+](=O)[O-])cc3[N+](=O)[O-])cc2s1
IC50 [18]: 1.85 µM (active) | EC50 [24]: 0.654 µM (active) | EC50 [25]: > 60 µM (not active)

CC1=CC(=O)NP(=O)(Oc2ccc3ccccc3c2)N1 (centres undefined)
IC50 [8]: 80.7 µM (active) | IC50 [26]: 31.2 µM (active)

CCC1=C2CC[C@H]3C(=O)NC(=O)[C@H]3[C@H]2[C@@]2(C)C(=O)N(CC3CC3)C(=O)N2C1=O
AC50 [9]: 31.6 µM (inconclusive)

O=C(Cc1ccc(N2CCNC2=O)cc1)N1CCCC(Nc2cccc(F)c2)C1 (centres undefined)
EC50 [5]: 5.11 µM (active) | EC50 [6]: 2.72 µM (active) | EC50 [7]: 9.37 µM (inconclusive)

Cc1ccc(NC(=O)CCc2c[nH]c3ccccc23)nc1
EC50 [20]: > 150 µM (inconclusive) | EC50 [21]: 50.4 µM (active) | EC50 [22]: 12.6 µM (active) | EC50 [23]: 17.7 µM (active)
